Measured values taken from US8247530B2, “N-alkylated cyclic peptide melanocortin agonists” (Palatin Technologies, Inc., priority 2005, dated 2012).
Where a SMILES comes first, the peptide text is derived from it. Bridges are numbered along the chain shown (N, C = ends). [ ]: non-standard residue; d: D form. 1Nal = N[C@@H](Cc1cccc2ccccc12)C(=O)O; Nle = CCCC[C@H](N)C(=O)O

How the values were obtained:
[1] = target: T1, MC1-R (B-16 mouse melanoma cells) (Mus musculus, UniProt Q01727); experiment: Competitive inhibition binding assay using [I125]-NDP-α-MSH, MC1-R; settings: radioligand [I125]-NDP-α-MSH, B-16 mouse melanoma membranes
T1 construct: B-16 mouse melanoma cells (containing MC1-R); endogenous in cells; host or cells: B-16 mouse melanoma cells
Method: The assay mixture was incubated for 60 minutes at 37° C., then filtered and the membranes washed three times with ice cold phosphate buffered saline. The filter was dried and counted in a gamma counter for remaining radioactivity bound to the membranes. […] Each assay was conducted in triplicate.

MC3-R [2] = target: T2, MC3-R (Homo sapiens, UniProt P41968); experiment: Competitive inhibition binding assay using [I125]-NDP-α-MSH, hMC3-R; settings: radioligand [I125]-NDP-α-MSH, HEK-293 membranes; read-out: Ki (NDP-α-MSH) MC3-R
T2 construct: expressed in transfected cells; host or cells: HEK-293
Method: (§1) The assay tube also contained a chosen concentration of the test peptide of this invention, typically a 1 μM concentration, for determining its efficacy in inhibiting the binding of [I^125]NDP-α-MSH to the receptor.
(§2) The assay mixture was incubated for 60 minutes at 37° C., then filtered and the membranes washed three times with ice cold phosphate buffered saline. The filter was dried and counted in a gamma counter for remaining radioactivity bound to the membranes. 100% specific binding was defined as the difference in radioactivity (cpm) bound to cell membranes in the absence and presence of 1 μM NDP-α-MSH. […] Each assay was conducted in triplicate. The Ki (nM) of certain peptides of the invention were determined using similar assay protocols and testing peptides over a wider dose range.

MC4-R [3] = target: T3, MC4-R (Homo sapiens, UniProt P32245); experiment: Competitive inhibition binding assay using [I125]-NDP-α-MSH, hMC4-R; settings: radioligand [I125]-NDP-α-MSH, HEK-293 membranes; read-out: Ki (NDP-α-MSH) MC4-R
T3 construct: expressed in transfected cells; host or cells: HEK-293
Method: as §1, §2

hMC5-R = target: T4, hMC5-R (Homo sapiens, UniProt P33032); experiment: Competitive inhibition binding assay using [I125]-NDP-α-MSH, hMC5-R; settings: radioligand [I125]-NDP-α-MSH, HEK-293 membranes; read-out: Ki (NDP-α-MSH) MC5-R
T4 construct: expressed in transfected cells; host or cells: HEK-293
Method: as §1, §2

MC3-R [4] = target: T2, MC3-R; experiment: Competitive inhibition Ki (AgRP), MC3-R; assay type: binding; settings: AgRP as competing ligand
Method: as §2

MC4-R [5] = target: T3, MC4-R; experiment: Competitive inhibition Ki (AgRP), MC4-R; assay type: binding; settings: AgRP as competing ligand
[6] = target: T1, MC1-R (B-16 mouse melanoma cells); experiment: cAMP functional assay for agonist/antagonist status, MC1-R; assay type: cell-based; settings: for agonist/antagonist status as to MC1-R: cAMP assay; for EC50: cAMP accumulation; for efficacy relative to NDP-α-MSH, MC1-R: cAMP response ratio to NDP-α-MSH
Method: Data analysis and EC50 values were determined using nonlinear regression analysis with Prism Graph-Pad software.
The agonist/antagonist status with respect to MC1-R, MC4-R and MC5-R of certain peptides of the invention was determined.

hMC3-R (HEK-293 cells) = target: T5, hMC3-R (HEK-293 cells) (Homo sapiens, UniProt P41968); experiment: cAMP functional assay for agonist/antagonist status, MC3-R; assay type: cell-based; settings: for agonist/antagonist status as to MC3-R: cAMP assay; for EC50: cAMP accumulation; for efficacy relative to NDP-α-MSH, MC3-R: cAMP response ratio to NDP-α-MSH
T5 construct: expressed in transfected cells; host or cells: HEK-293
Method: (§3) Functional evaluation of peptides at melanocortin receptors was performed by measuring the accumulation of intracellular cAMP in HEK-293 cells expressing hMC3-R, hMC4-R or hMC5-R, and in B-16 mouse melanoma cells expressing MC1-R. Cells suspended in Earle's Balanced Salt Solution containing 10 mM HEPES (pH 7.5), 5 mM MgCl2, 1 mM glutamine, 0.5% albumin and 0.3 mM 3-isobutyl-1-methyl-xanthine, a phosphodiesterase inhibitor, were plated in 96 well plates at a density of 0.5×10^5 cells per well. Cells were incubated with the test peptides in the presence or absence of NDP-α-MSH for 1 hour at 37° C. cAMP levels in the cell lysates were measured using an EIA kit (Amersham). Data analysis and EC50 values were determined using nonlinear regression analysis with Prism Graph-Pad software.
(§4) The agonist/antagonist status with respect to MC1-R, MC4-R and MC5-R of certain peptides of the invention was determined. Antagonistic activity was determined by measuring the inhibition of α-MSH-induced or NDP-α-MSH-induced cAMP levels following exposure to the peptides as in the preceding descriptions.

hMC4-R (HEK-293 cells) = target: T6, hMC4-R (HEK-293 cells) (Homo sapiens, UniProt P32245); experiment: cAMP functional assay for agonist/antagonist status, MC4-R; assay type: cell-based; settings: for EC50: cAMP accumulation; for agonist/antagonist status as to MC4-R: cAMP assay; for efficacy relative to NDP-α-MSH, MC4-R: cAMP response ratio to NDP-α-MSH
T6 construct: expressed in transfected cells; host or cells: HEK-293
Method: as §3, §4
Evaluation of the molecules to elicit a functional response in HEK-293 cells expressing hMC4-R for agonistic activity was done by measuring the accumulation of intracellular cAMP following treatment. Confluent HEK-293 cells over-expressing MC4-R receptors were detached by enzyme free cell suspension buffer. Cells were suspended in Earle's Balanced Salt Solution containing 10 mM HEPES (pH 7.5), 1 mM MgCl2, 1 mM glutamine, 0.5% albumin and 0.3 mM 3-isobutyl-1-methyl-[…]. The cells were plated in a 96 well plate at a density of 0.5×10^5 cells per well and pre-incubated for 60 minutes. The cells were then challenged with the test peptides dissolved in dimethylsulfoxide (DMSO) at a concentration range of 0.05-5000 nM in a total assay volume of 200 μL for 1 hour at 37° C. The concentration of DMSO was held at 1% in the assay mixture. NDP-α-MSH was used as the reference agonist. At the end of the incubation period the cells were disrupted by the addition of 50 μL lysis buffer from the cAMP EIA kit (Amersham). Complete rupture of the cells was ensured by pipetting the cells. cAMP levels in the cell lysates were measured after appropriate dilution using the EIA kit (Amersham) method. Data analysis and EC50 values were determined by using nonlinear regression analysis with the Prism Graph-Pad software.

male Sprague-Dawley rats = experiment: Penile erection induction in male rats; assay type: in vivo, rat; settings: 1000 μg/kg IV, groups of 6 rats, one hour observation
Method: The ability of peptides to induce penile erection (PE) in male rats was evaluated with selected peptides. Male Sprague-Dawley rats weighing 200-250 g were kept on a 12 hour on/off light cycle with food and water ad libitum. All behavioral studies were performed between 10 a.m. and 5 p.m. Groups of 4-8 rats were administered peptides at a variety of doses via an intravenous (IV) route, and may alternatively be administered peptide by an intracerebroventricular (ICV) route. Immediately after treatment, rats were placed into individual polystyrene cages (27 cm long, 16 cm wide, and 25 cm high) for behavioral observation. […] For rats administered peptide by an ICV routes, rats are observed for two hours.
Selected peptides were tested as in Example 5. Peptide was administered by IV routes, and used at dose levels ranging from 1 μg/kg to 1000 μg/kg.

T5 sequence (P41968 whole entry): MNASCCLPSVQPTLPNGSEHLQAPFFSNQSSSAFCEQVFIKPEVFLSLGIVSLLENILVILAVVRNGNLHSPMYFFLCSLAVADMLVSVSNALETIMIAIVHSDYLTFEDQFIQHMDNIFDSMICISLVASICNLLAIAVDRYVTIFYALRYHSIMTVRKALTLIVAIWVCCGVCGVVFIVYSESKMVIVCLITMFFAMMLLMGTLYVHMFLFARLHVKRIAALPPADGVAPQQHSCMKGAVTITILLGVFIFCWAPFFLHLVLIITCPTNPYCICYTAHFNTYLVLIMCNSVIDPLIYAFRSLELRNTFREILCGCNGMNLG
T2 sequence (P41968 whole entry): as above
T1 sequence (Q01727 whole entry): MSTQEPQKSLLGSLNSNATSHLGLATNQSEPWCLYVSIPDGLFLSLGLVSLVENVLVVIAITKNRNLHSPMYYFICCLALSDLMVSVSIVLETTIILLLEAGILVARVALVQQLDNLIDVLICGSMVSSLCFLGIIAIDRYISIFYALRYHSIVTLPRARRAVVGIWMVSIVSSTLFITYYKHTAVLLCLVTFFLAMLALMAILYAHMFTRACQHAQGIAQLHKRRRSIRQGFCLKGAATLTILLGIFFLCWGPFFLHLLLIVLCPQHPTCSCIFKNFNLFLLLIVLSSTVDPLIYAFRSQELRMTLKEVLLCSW
T6 sequence (P32245 whole entry): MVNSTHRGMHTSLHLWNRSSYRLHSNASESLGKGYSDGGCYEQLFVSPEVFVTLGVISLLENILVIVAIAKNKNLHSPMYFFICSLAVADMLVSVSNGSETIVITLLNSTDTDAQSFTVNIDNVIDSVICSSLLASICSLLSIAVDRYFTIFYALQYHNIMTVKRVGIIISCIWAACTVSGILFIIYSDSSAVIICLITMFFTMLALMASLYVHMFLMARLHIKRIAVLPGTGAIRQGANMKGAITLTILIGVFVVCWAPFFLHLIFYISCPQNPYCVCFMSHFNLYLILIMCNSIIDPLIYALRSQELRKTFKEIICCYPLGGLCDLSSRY
T3 sequence (P32245 whole entry): as above
T4 sequence (P33032 whole entry): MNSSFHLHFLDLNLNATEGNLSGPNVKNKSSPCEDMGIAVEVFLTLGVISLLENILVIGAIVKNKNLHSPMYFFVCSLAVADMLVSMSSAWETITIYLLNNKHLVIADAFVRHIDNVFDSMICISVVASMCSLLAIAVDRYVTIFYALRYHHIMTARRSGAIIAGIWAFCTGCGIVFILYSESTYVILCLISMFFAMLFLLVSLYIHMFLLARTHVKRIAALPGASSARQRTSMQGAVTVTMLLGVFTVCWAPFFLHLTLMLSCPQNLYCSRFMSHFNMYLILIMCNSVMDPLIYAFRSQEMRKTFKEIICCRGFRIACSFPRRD

Ki [1] | Ki (MC3-R [2]) | Ki (MC4-R [3]) | Ki (hMC5-R) | Ki (MC3-R [4]) | Ki (MC4-R [5]) | EC50 (hMC4-R (HEK-293 cells)) | efficacy relative to NDP-α-MSH, MC4-R (hMC4-R (HEK-293 cells)) | EC50 [6] | efficacy relative to NDP-α-MSH, MC1-R [6] | EC50 (hMC3-R (HEK-293 cells)) | efficacy relative to NDP-α-MSH, MC3-R (hMC3-R (HEK-293 cells)) | SMILES | agonist/antagonist status as to MC1-R [6] | agonist/antagonist status as to MC3-R (hMC3-R (HEK-293 cells)) | agonist/antagonist status as to MC4-R (hMC4-R (HEK-293 cells)) | rats exhibiting at least one PE (male Sprague-Dawley rats)
0.215 µM | 0.964 µM | 0.122 µM | 0.549 µM | > 3 µM | 0.233 µM | 1.54 µM | 0.9 |  |  |  |  | CC(=O)N[C@H]1CC(=O)NCCCC[C@@H](C(=O)N(C)C)NC(=O)[C@H](Cc2cccc3ccccc23)NC(=O)[C@H](CCCNC(=N)N)NC(=O)[C@@H](Cc2ccccc2)NC(=O)[C@H](Cc2c[nH]c3ccccc23)NC1=O [Example 15, Ac-cyclo(-Asp-Trp-D-Phe-Arg-Nal 1-Lys)-N(CH3)2] (Ac-DW[dF]R[1Nal]K-NMe2; lactam 1-6 (inferred)) | inactive | inactive | agonist (response ratio compared to NDP-α-MSH of 0.7 and above were classified as full agonists) | 
0.018 µM | 0.462 µM | 0.157 µM | 0.937 µM | > 2 µM | 0.284 µM | 0.5 µM | 1.1 | 6.41 µM | 0.9 | 6.21 µM | 0.8 | CCNC(=O)[C@@H]1CCCCNC(=O)C[C@H](NC(C)=O)C(=O)N[C@@H](Cc2c[nH]cn2)C(=O)N[C@H](Cc2ccccc2)C(=O)N[C@@H](CCCNC(=N)N)C(=O)N[C@@H](Cc2cccc3ccccc23)C(=O)N1 [Example 16, Ac-cyclo(-Asp-His-D-Phe-Arg-Nal 1-Lys)-NH—CH2—CH3] (Ac-DH[dF]R[1Nal]K-NHEt; lactam 1-6 (inferred)) | agonist (response ratio compared to NDP-α-MSH of 0.7 and above were classified as full agonists) | agonist (response ratio compared to NDP-α-MSH of 0.7 and above were classified as full agonists) | agonist (response ratio compared to NDP-α-MSH of 0.7 and above were classified as full agonists) | 
0.166 µM | 0.886 µM | 0.045 µM | > 2 µM | > 10 µM | 0.071 µM | 0.698 µM | 0.7 |  |  |  |  | CCNC(=O)[C@@H]1CCCCNC(=O)C[C@H](NC(C)=O)C(=O)N[C@@H](Cc2c[nH]c3ccccc23)C(=O)N[C@H](Cc2ccccc2)C(=O)N[C@@H](CCCNC(=N)N)C(=O)N[C@@H](Cc2cccc3ccccc23)C(=O)N1 [Example 14, Ac-cyclo(-Asp-Trp-D-Phe-Arg-Nal 1-Lys)-NH—CH2—CH3] (Ac-DW[dF]R[1Nal]K-NHEt; lactam 1-6 (inferred)) | inactive | inactive | agonist (response ratio compared to NDP-α-MSH of 0.7 and above were classified as full agonists) | 
0.04 µM | > 10 µM | 0.092 µM | > 10 µM |  |  | 0.091 µM | 0.93 | 2.36 µM | 1.0 | > 1 µM | 0.4 | CC(=O)N[C@H]1CC(=O)NCCCC[C@@H](C(=O)N(C)C)NC(=O)[C@H](Cc2cccc3ccccc23)NC(=O)[C@H](CCCNC(=N)N)NC(=O)[C@@H](Cc2ccccc2)NC(=O)[C@H](Cc2c[nH]cn2)NC1=O [Example 17, Ac-cyclo(-Asp-His-D-Phe-Arg-Nal 1-Lys)-N(CH3)2] (Ac-DH[dF]R[1Nal]K-NMe2; lactam 1-6 (inferred)) | agonist (response ratio compared to NDP-α-MSH of 0.7 and above were classified as full agonists) | partial agonist (Peptides with a ratio from 0.1 to 0.7 were classified as partial agonists) | agonist (response ratio compared to NDP-α-MSH of 0.7 and above were classified as full agonists) | 100%
0.002 µM | 0.154 µM | 0.012 µM | > 1 µM |  | 0.018 µM | 0.005 µM | 0.6 | 0.151 µM | 0.7 | 1.25 µM | 1.3 | CC(=O)N[C@H]1CC(=O)NCCCC[C@@H](C(=O)N(C)C)NC(=O)[C@H](Cc2c[nH]c3ccccc23)NC(=O)[C@H](CCCNC(=N)N)NC(=O)[C@@H](Cc2ccccc2)NC(=O)[C@H](Cc2c[nH]cn2)NC1=O [Example 13, Ac-cyclo(-Asp-His-D-Phe-Arg-Trp-Lys)-N(CH3)2] | agonist (response ratio compared to NDP-α-MSH of 0.7 and above were classified as full agonists) | agonist (response ratio compared to NDP-α-MSH of 0.7 and above were classified as full agonists) | partial agonist (Peptides with a ratio from 0.1 to 0.7 were classified as partial agonists) | 100%
0.003 µM |  |  |  |  | 0.026 µM |  | 0.6 | 0.397 µM | 0.3 | 1.82 µM | 0.2 | CCCC[C@H](NC(C)=O)C(=O)N[C@H]1CC(=O)NCCCC[C@@H](C(=O)NCC)NC(=O)[C@H](Cc2cccc3ccccc23)NC(=O)[C@H](CCCNC(=N)N)NC(=O)[C@@H](Cc2ccccc2)NC(=O)[C@H](Cc2c[nH]c3ccccc23)NC1=O [Example 18, Ac-Nle-cyclo(-Asp-Trp-D-Phe-Arg-Nal 1-Lys)-NH—CH2—CH3] (Ac-[Nle]DW[dF]R[1Nal]K-NHEt; lactam 2-7 (inferred)) | partial agonist (Peptides with a ratio from 0.1 to 0.7 were classified as partial agonists) | partial agonist (Peptides with a ratio from 0.1 to 0.7 were classified as partial agonists) | partial agonist (Peptides with a ratio from 0.1 to 0.7 were classified as partial agonists) | 
